{"source": "patent US20250214947A1", "about": "“3,4-DIHYDROQUINOXALINE-2-CARBOXIMIDE DERIVATIVE COMPOUND AND PHARMACEUTICAL COMPOSITION COMPRISING SAME FOR PREVENTING OR TREATING CANCER DISEASE” (Cureverse Incorporated, priority 2022, published 2025)", "key": {"[1]": {"molecular_target": "T1, HDAC6 (Homo sapiens, UniProt Q9UBN7)", "T1 sequence (Q9UBN7 1-1215)": "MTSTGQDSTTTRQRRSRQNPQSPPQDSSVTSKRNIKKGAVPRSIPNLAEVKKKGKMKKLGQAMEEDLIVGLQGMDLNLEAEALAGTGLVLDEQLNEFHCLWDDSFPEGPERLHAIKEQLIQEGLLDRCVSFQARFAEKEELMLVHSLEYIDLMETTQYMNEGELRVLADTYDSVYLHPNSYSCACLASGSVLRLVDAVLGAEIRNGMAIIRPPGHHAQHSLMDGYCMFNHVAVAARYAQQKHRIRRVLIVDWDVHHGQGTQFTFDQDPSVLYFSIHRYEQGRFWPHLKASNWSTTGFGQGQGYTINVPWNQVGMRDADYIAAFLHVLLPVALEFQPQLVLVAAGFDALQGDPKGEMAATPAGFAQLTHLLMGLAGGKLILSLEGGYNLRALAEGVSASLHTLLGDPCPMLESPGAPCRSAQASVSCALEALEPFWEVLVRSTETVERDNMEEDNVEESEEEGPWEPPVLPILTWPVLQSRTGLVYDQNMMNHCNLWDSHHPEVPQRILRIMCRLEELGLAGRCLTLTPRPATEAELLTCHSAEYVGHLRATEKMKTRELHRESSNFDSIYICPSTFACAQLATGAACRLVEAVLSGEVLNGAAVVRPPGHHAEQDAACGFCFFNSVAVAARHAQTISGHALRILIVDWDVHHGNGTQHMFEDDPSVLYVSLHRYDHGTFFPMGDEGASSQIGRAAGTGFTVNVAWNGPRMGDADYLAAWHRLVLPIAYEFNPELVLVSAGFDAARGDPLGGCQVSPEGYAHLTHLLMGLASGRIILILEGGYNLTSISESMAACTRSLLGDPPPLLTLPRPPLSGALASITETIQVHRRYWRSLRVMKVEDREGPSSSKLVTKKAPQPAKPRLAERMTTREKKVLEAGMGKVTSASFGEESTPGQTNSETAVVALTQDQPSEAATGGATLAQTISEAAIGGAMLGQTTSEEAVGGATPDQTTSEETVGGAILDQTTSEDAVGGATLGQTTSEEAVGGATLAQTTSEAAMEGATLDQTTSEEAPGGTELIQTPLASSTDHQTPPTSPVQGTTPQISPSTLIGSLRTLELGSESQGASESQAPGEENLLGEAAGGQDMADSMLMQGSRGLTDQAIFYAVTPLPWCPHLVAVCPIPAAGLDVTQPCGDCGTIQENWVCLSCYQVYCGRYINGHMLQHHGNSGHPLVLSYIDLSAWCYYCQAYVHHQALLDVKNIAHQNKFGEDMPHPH", "test": "Selective inhibitory effect, HDAC Fluorogenic assay kit, HDAC6", "conditions": "read-out: HDAC6 enzyme activity (%)", "quoted_text": "For analysis, HDAC substrate 3 was diluted in buffer to a concentration of 200 μM and used in HDAC 1, 2, 3, 6, and 10 assays, HDAC substrate 2A was diluted in buffer to a concentration of 200 μM and used in HDAC 4, 7, 9, and 11 assays, HDAC substrate 2A was diluted in buffer to a concentration of 20 μM and used in HDAC 8 assays. For the HDAC 11 assay, a dedicated buffer included in the kit was used separately, and the same buffer was used for the remaining assays. The compound of the Example was diluted to 1 mM (1% DMSO concentration) using DMSO to obtain a final concentration of 10 μM, and prepared by diluting 1/10 with assay buffer. In a 96-well black round-bottom plate, 5 μL of the diluted compound of the Example, 5 μL of the diluted HDAC substrate, 5 μL of BSA (1 mg/ml), 5 μL of the HDAC enzyme diluted to the appropriate concentration, and 30 μL of assay buffer were added, and the enzyme reaction was performed at 37° C. for 30 minutes. […] Afterwards, 50 μL of 2×HDAC developer was added to each well. After reacting for 15 minutes at room temperature, the fluorescence values at excitation wavelengths of 350-380 nm and emission wavelengths of 440-460 nm were measured using a microplate reader (Synergy Neo)."}, "[2]": {"molecular_target": "T2, HDAC8 (Homo sapiens, UniProt Q9BY41)", "T2 construct": "purchased BPS bioscience", "T2 sequence (Q9BY41 1-377)": "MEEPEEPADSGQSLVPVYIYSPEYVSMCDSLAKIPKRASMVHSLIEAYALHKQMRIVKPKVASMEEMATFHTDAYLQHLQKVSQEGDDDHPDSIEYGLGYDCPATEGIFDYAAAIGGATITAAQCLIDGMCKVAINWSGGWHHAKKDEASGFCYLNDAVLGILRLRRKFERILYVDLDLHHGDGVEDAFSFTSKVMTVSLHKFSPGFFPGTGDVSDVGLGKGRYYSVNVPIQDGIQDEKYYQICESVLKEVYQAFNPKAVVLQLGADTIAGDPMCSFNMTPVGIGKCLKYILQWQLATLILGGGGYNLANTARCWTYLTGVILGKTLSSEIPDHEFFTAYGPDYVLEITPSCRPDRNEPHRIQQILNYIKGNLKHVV", "test": "HDAC8 inhibitory activity analysis (in vitro), RFU analysis, HDAC Fluorogenic assay kit", "format": "biochemical", "conditions": "10 μM; compared with TSA or SAHA", "quoted_text": "The compound of the Example was diluted to 1 mM (1% DMSO concentration) using DMSO to obtain a final concentration of 10 μM, and prepared by diluting 1/10 with assay buffer. In a 96-well black round-bottom plate, 5 μL of the diluted compound of the Example, 5 μL of the diluted HDAC substrate 2A, 5 μL of BSA (1 mg/mL), 5 µL of the HDAC8 enzyme diluted to an appropriate concentration, and 30 μL of assay buffer were added, and the enzyme reaction was performed at 37° C. for 30 minutes. […] Afterwards, 50 μL of 2×HDAC developer was added to each well. After reacting for 15 minutes at room temperature, the fluorescence values at excitation wavelengths of 350-380 nm and emission wavelengths of 440-460 nm were measured using a microplate reader (Synergy Neo)."}, "[3]": {"tested_on": "PC-3 cell lines", "test": "Prostate cancer model, PC-3 cell lines subcutaneously transplanted into nude mice", "format": "in vivo", "conditions": "50 mg/kg orally once a day", "procedure": "A prostate cancer model was established by subcutaneously transplanting PC-3 cell lines into nude mice, and the mice were divided into two groups (group 1: vehicle administration group (10% DSMO, 30% PEG400, 60% DW), group 2: 50 mg/kg Example 27 compound administration group). The drug was administered orally once a day for 12 times. To evaluate the therapeutic efficacy, tumors were […] before drug administration and on days 3, 6, 8, 10, 12, and 14 after drug administration, and tumor volumes were measured. Tumor volume (mm^3) was calculated as follows (tumor volume (mm^3)=(A×B^2)/2, where A=tumor long axis, B=tumor short axis), and the results are shown in FIG. 2.\nMeanwhile, on day 12 of drug administration, the tumor was removed and its weight was measured, the results are shown in FIG. 3, and a photograph of the removed tumor was taken and shown in FIG. 4."}}, "data": [{"compound": "Cc1cc2nc(C(=O)NCCc3c[nH]c4ccc(O)cc34)c(=O)n(C[C@H](O)[C@H](O)[C@H](O)CO)c2cc1C", "note": "[Example 27, N-(2-(5-hydroxy-1H-indol-3-yl)ethyl)-6,7-dimethyl-3-oxo-4-((2S,3S,4R)-2,3,4,5-tetrahydroxypentyl)-3,4-dihydroquinoxaline-2-carboxamide]", "values": [{"measurement": "remaining activity at 10 µM", "setting": "[1]", "result": 43.7, "unit": "%"}, {"measurement": "inhibitory activity against HDAC8 (in words)", "setting": "[2]", "result": "inhibitory activity similar to TSA or SAHA"}, {"measurement": "tumor volume (in words)", "setting": "[3]; 12 times, up to day 14, p<0.05 vs vehicle, FIG. 2", "result": "significantly reduced tumor volume growth rate compared to group 1"}, {"measurement": "tumor weight (in words)", "setting": "[3]; tumor removed on day 12, p<0.0005 vs vehicle, FIG. 3", "result": "vehicle administration group (group 1) had a significantly higher tumor weight than the Example 27 compound administration group"}]}]}
